Reference: PMC7226586 (Journal of Medicinal Chemistry, 2019)
“Also recorded” adds a separate entry of the source.

Legend:
[1] = biological target: cholesterol-bound CYP46A1 (Homo sapiens, UniProt Q9Y6A2); assay: Spectral titrations of cholesterol-bound CYP46A1; format: binding; details: 20 μM cholesterol; for spectral response type, cholesterol-bound CYP46A1 / spectral response fit, cholesterol-bound CYP46A1: 18 °C
substrate-free CYP46A1 = substrate-free CYP46A1 (Homo sapiens, UniProt Q9Y6A2); assay: Spectral titrations of substrate-free CYP46A1; format: binding; details: for spectral response type, substrate-free CYP46A1: P450 difference spectrum
[2] = biological target: T1, purified recombinant CYP46A1 (Homo sapiens, UniProt Q9Y6A2); assay: CYP46A1 enzyme assay; format: biochemical; details: for shape of concentration dependence curve of CYP46A1 activity / CYP46A1 inhibition at the concentrations tested: 0–100 μM compound; for CYP46A1 inhibition at the 60–100 μM concentrations: 60–100 μM compound; for effect of co-incubation with L-Glu on CYP46A1 activation / maximal activation in the presence of L-Glu (fold): 100 μM L-Glu; for effect of co-incubation with L-Glu on CYP46A1 activation / effect of co-incubation with (S)-EFV on CYP46A1 activation / maximal activation in the presence of L-Glu (fold): 20 μM compound; for effect of co-incubation with (S)-EFV on CYP46A1 activation: 20 μM (S)-EFV
[3] = biological target: CYP46A1 allosteric sites (EFV binding site, Glu binding site) (Homo sapiens, UniProt Q9Y6A2); assay: Mapping of the allosteric site; format: biochemical; details: for allosteric site of binding: from co-incubations and mutants; for P450 activation with replacements within the Glu-binding site: CYP46A1 mutants K358A, F416A and Y427A; for P450 activation with replacements within the Glu-binding site / P450 activation with replacements within the EFV-binding site: 20 μM compound; for P450 activation with replacements within the EFV-binding site: CYP46A1 mutants R415A and F405A
CYP46A1 = CYP46A1 (Homo sapiens, UniProt Q9Y6A2); assay: Stopped-flow kinetics of compound binding to and release from CYP46A1; details: for mechanism of binding to substrate-free CYP46A1: stopped-flow experiments; for spectral binding at 15–30 μM, stopped-flow: substrate-free CYP46A1, 15–30 μM compound
[4] = plasma of EFV-treated subjects; cited from earlier work
[5] = cited from earlier work
[6] = concentrations mimicking the 600 mg/day EFV dose; cited from earlier work
CYP46A1 in the brain = details: 0.32 (mg/da)/kg body dose, mice; cited from earlier work
protein (albumin) = details: cited from earlier work
[7] = biological target: T1, purified recombinant CYP46A1; details: previous study; cited from earlier work
[8] = within 1 h of an intraperitoneal administration; cited from earlier work
[9] = Cholesterol binding to HPCD; details: read-out: Kd of cholesterol for HPCD; 50 mM KPi buffer (pH 7.2) containing 100 mM NaCl at 24 °C

Row | Structure (SMILES) | fit of spectral titration curve, cholesterol-bound CYP46A1 [1] | spectral response type, cholesterol-bound CYP46A1 [1] | fit of spectral titration curve, substrate-free CYP46A1 (substrate-free CYP46A1) | spectral response type, substrate-free CYP46A1 (substrate-free CYP46A1; 18 °C) | shape of concentration dependence curve of CYP46A1 activity [2] | CYP46A1 inhibition at the 60–100 μM concentrations [2] | spectral response fit, cholesterol-bound CYP46A1 [1] | effect of co-incubation with L-Glu on CYP46A1 activation [2] | allosteric site of binding [3] | CYP46A1 activation compared with that with (S)-EFV [2] | other results
1 | O=C1Nc2c(O)cc(Cl)cc2C(C#CC2CC2)(C(F)(F)F)O1 (racemic) [rac-1] | sigmoidal | reverse type 1-like | hyperbolic | type 2 | bell-shaped | did not inhibit | – | – | – | – | –
2 | O=C1Nc2cc(O)c(Cl)cc2C(C#CC2CC2)(C(F)(F)F)O1 (racemic) [rac-2] | sigmoidal | reverse type 1-like | hyperbolic | type 2 | bell-shaped | did not inhibit | S | synergistically activated | both EFV- and Glu-binding sites | – | –
3 | O=C1Nc2c(O)cc(Cl)cc2C(C#CC2(O)CC2)(C(F)(F)F)O1 (racemic) [rac-3] | hyperbolic | reverse type 1-like | hyperbolic | type 2 | essentially hyperbolic | – | – | lower | mainly with the allosteric site for Glu | – | kon lower than that of (S)-EFV (CYP46A1): 3 fold; mechanism of binding to substrate-free CYP46A1 (CYP46A1): conformational-selection; rates of binding (kobserved) lower than those for (S)-EFV (CYP46A1; substrate-free CYP46A1): ≥ 7 fold; spectral binding at 15–30 μM, stopped-flow (CYP46A1): essentially no spectral binding; difference in the apparent spectral Kd versus (S)-EFV (substrate-free CYP46A1; substrate-free CYP46A1): 2 fold; effect of co-incubation with (S)-EFV on CYP46A1 activation [2]: synergistic CYP46A1 activation; P450 activation with replacements within the Glu-binding site [3]: largely reduced or abolished; P450 activation with replacements within the EFV-binding site [3]: not significantly affected
4 | O=C1Cc2ccc(Cl)cc2C(C#CC2CC2)(C(F)(F)F)O1 (racemic) [rac-5] | – | did not seem to elicit a quantifiable spectral response; also recorded: no spectral response | sigmoidal | type 1 | sigmoidal-like | – | – | synergistically activated | both EFV- and Glu-binding sites | lower | spectral response fit, substrate-free CYP46A1 (substrate-free CYP46A1; 18 °C): S; CYP46A1 inhibition at the concentrations tested [2]: did not inhibit
5 | CC1Nc2ccc(Cl)cc2C(C#CC2CC2)(C(F)(F)F)O1 (racemic) [rac-7] | – | did not seem to elicit a quantifiable spectral response; also recorded: no spectral response | hyperbolic | type 1 | bell-shaped | – | – | abolished | mainly with the allosteric site for Glu | lower | effect of co-incubation with (S)-EFV on CYP46A1 activation [2]: synergistic CYP46A1 activation; maximal activation in the presence of L-Glu (fold) [2]: abolished; P450 activation with replacements within the Glu-binding site [3]: largely reduced or abolished; P450 activation with replacements within the EFV-binding site [3]: not significantly affected
6 | O=C1CC(C#CC2CC2)(C(F)(F)F)c2cc(Cl)ccc2N1 (racemic) [rac-8] | sigmoidal | reverse type 1-like | hyperbolic | type 1 | bell-shaped | – | S | synergistically activated | preferential EFV-site binding | similar | –
7 | CCCC#CC1(C(F)(F)F)OC(=O)Nc2ccc(Cl)cc21 (racemic) [rac-9] | sigmoidal | reverse type 1-like | hyperbolic | type 1 | bell-shaped | – | S | synergistically activated | preferential EFV-site binding | lower | –
8 | O=C1Nc2cc(O)c(Cl)cc2[C@@](C#CC2CC2)(C(F)(F)F)O1 [7-hydroxyEFV, (S)-7-hydroxyEFV] | – | – | – | – | – | – | – | – | – | – | plasma level [4]: 8.8 to 225 ng/mL; cerebrospinal fluid level [5]: 0.63 ng/mL
9 | O=C1Nc2c(O)cc(Cl)cc2[C@@](C#CC2CC2)(C(F)(F)F)O1 [(S)-1, (S)-8-hydroxyEFV] | sigmoidal | reverse type 1-like | hyperbolic | type 2 | bell-shaped | did not inhibit | S | synergistically activated | both EFV- and Glu-binding sites | – | plasma level [4]: 315 to 2160 ng/mL; cerebrospinal fluid level [5]: 3.1 to 5.3 ng/mL; cell damage or death in cell culture [6]: induce cell damage or death
10 | FC(F)(F)[C@@]1(C#CC2CC2)OCNc2ccc(Cl)cc21 [(S)-6] | – | did not seem to elicit a quantifiable spectral response; also recorded: no spectral response | hyperbolic | type 1 | bell-shaped | – | – | abolished | mainly with the allosteric site for Glu | lower | CYP46A1 inhibition at the concentrations tested [2]: did not inhibit; effect of co-incubation with (S)-EFV on CYP46A1 activation [2]: synergistic CYP46A1 activation; maximal activation in the presence of L-Glu (fold) [2]: abolished; P450 activation with replacements within the Glu-binding site [3]: largely reduced or abolished; P450 activation with replacements within the EFV-binding site [3]: not significantly affected
11 | O=C1Nc2ccc(Cl)cc2[C@@](C#CC2CC2)(C(F)(F)F)O1 [(S)-EFV, (S)-6-chloro-4-(cyclopropylethynyl)-4-(trifluoromethyl)-1,4-dihydro-2H-benzo[d][1,3]oxazin-2-one, reference compound] | sigmoidal | reverse type 1 | hyperbolic | type 2 | bell-shaped | inhibitory | S | – | – | – | plasma level [4]: 2170 to 3350 ng/mL; effect on CYP46A1 in the brain (CYP46A1 in the brain): inhibited; mechanism of binding to substrate-free CYP46A1 (CYP46A1): conformational-selection; spectral binding at 15–30 μM, stopped-flow (CYP46A1): measurable; cerebrospinal fluid level [5]: 13.9 to 19.5 ng/mL; protein (albumin)-bound in the blood (protein (albumin)): ≥ 99.6%; CYP46A1 inhibition at 100 μM [7]: almost completely inhibited; brain levels exceeding those in the plasma [8]: 4.6 times
12 | CC(C)CCC[C@@H](C)[C@H]1CC[C@H]2[C@@H]3CC=C4C[C@@H](O)CC[C@]4(C)[C@H]3CC[C@]12C [cholesterol] | – | – | – | – | – | – | – | – | – | – | calculated kon higher than that for rac-3 (CYP46A1): 1.9 fold; calculated kon lower than that for (S)-EFV (CYP46A1): 1.7 fold; koff (CYP46A1; read-out: experimental koff (s^–1)): 0.012 ± 0.002 s⁻¹; Kd (substrate-free CYP46A1; Kd for substrate-free CYP46A1 (M), cholesterol, from an apparent Kd of 80 nM [20] after the correction for HPCD binding): 9e-09 M; Kd [9]: 540 µM
